{
  "source": "ChEMBL document CHEMBL2046307",
  "about": "“Plumbagin induces apoptosis in Her2-overexpressing breast cancer cells through the mitochondrial-mediated pathway” (J Nat Prod, 2012)",
  "key": {"[1]": {"tested_on": "SK-BR-3", "assay": "Anticlonogenic activity in Her2-overexpressing human SKBR3 cells assessed as inhibition of colony formation after 6 hrs followed by washout measured after 16 days by crystal violet staining", "type": "functional, cell-based"}, "[2]": {"tested_on": "BT-474", "assay": "Ratio of IC50 for Her2-overexpressing human BT474 cells after 24 hrs to IC50 for Her2-overexpressing human BT474 cells after 72 hrs", "type": "functional"}, "[3]": {"tested_on": "SK-BR-3", "assay": "Induction of cell cycle arrest in Her2-overexpressing human SKBR3 cells assessed as increase in DNA accumulation at subG1 phase at 2.5 uM after 24 hrs by propidium iodide staining-based flow cytometric analysis (reference value: 11%)", "type": "functional"}, "[4]": {"tested_on": "SK-BR-3", "assay": "Induction of cell cycle arrest in Her2-overexpressing human SKBR3 cells assessed as increase in DNA accumulation at subG1 phase at 5 uM after 24 hrs by propidium iodide staining-based flow cytometric analysis (reference value: 11%)", "type": "functional"}, "[5]": {"tested_on": "SK-BR-3", "assay": "Cytotoxicity against Her2-overexpressing human SKBR3 cells after 72 hrs by MTT assay", "type": "functional, cell-based", "settings": "SK-BR-3, 72 h"}, "[6]": {"tested_on": "BT-474", "assay": "Cytotoxicity against Her2-overexpressing human BT474 cells after 24 hrs by MTT assay", "type": "functional, cell-based", "settings": "BT-474, 24 h"}, "[7]": {"tested_on": "SK-BR-3", "assay": "Cytotoxicity against Her2-overexpressing human SKBR3 cells after 24 hrs by MTT assay", "type": "functional, cell-based", "settings": "SK-BR-3, 24 h"}, "[8]": {"tested_on": "SK-BR-3", "assay": "Induction of cell cycle arrest in Her2-overexpressing human SKBR3 cells assessed as increase in DNA accumulation at subG1 phase after 24 hrs by propidium iodide staining-based flow cytometric analysis", "type": "functional"}, "[9]": {"tested_on": "SK-BR-3", "assay": "Induction of apoptosis in Her2-overexpressing human SKBR3 cells assessed as increase in caspase activity after 6 hrs by fluorescence analysis relative to control", "type": "functional"}, "[10]": {"tested_on": "BT-474", "assay": "Induction of apoptosis in Her2-overexpressing human BT474 cells assessed as increase in caspase activity after 6 hrs by fluorescence analysis", "type": "functional, cell-based"}, "[11]": {"tested_on": "SK-BR-3", "assay": "Induction of apoptosis in Her2-overexpressing human SKBR3 cells assessed as increase in caspase activity after 6 hrs by fluorescence analysis", "type": "functional, cell-based"}, "[12]": {"tested_on": "BT-474", "assay": "Induction of apoptosis in Her2-overexpressing human BT474 cells assessed as decrease in Bcl-2 protein level after 24 hrs by Western blot analysis", "type": "functional, cell-based"}, "[13]": {"tested_on": "SK-BR-3", "assay": "Induction of apoptosis in Her2-overexpressing human SKBR3 cells assessed as increase in BaK protein level after 24 hrs by Western blot analysis", "type": "functional, cell-based"}, "[14]": {"tested_on": "SK-BR-3", "assay": "Induction of apoptosis in Her2-overexpressing human SKBR3 cells assessed as decrease in Bcl-2 protein level after 24 hrs by Western blot analysis", "type": "functional, cell-based"}, "[15]": {"tested_on": "BT-474", "assay": "Cytotoxicity against Her2-overexpressing human BT474 cells after 24 to 72 hrs by MTT assay", "type": "functional, cell-based"}, "[16]": {"tested_on": "BT-474", "assay": "Induction of apoptosis in Her2-overexpressing human BT474 cells assessed as accumulation at subG1 phase by propidium iodide staining-based flow cytometric analysis", "type": "functional, cell-based"}, "[17]": {"tested_on": "SK-BR-3", "assay": "Induction of apoptosis in Her2-overexpressing human SKBR3 cells assessed as increase in Bax protein level after 24 hrs by Western blot analysis", "type": "functional, cell-based"}, "[18]": {"tested_on": "BT-474", "assay": "Induction of apoptosis in Her2-overexpressing human BT474 cells assessed as increase in caspase activity at 10 uM after 6 hrs by fluorescence analysis relative to control", "type": "functional"}, "[19]": {"tested_on": "MDA-MB-231", "assay": "Antitumor activity against human MDA-MB-231 cells xenografted in nude mouse assessed as decrease in tumor volume", "type": "functional", "set-up": "scale not given: the % may be the effect or the level left"}, "[20]": {"tested_on": "SK-BR-3", "assay": "Anticlonogenic activity in Her2-overexpressing human SKBR3 cells assessed as inhibition of colony formation at 1 uM after 6 hrs followed by washout measured after 16 days by crystal violet staining", "type": "functional"}, "[21]": {"tested_on": "BT-474", "assay": "Cytotoxicity against Her2-overexpressing human BT474 cells after 72 hrs by MTT assay", "type": "functional, cell-based", "settings": "BT-474, 72 h"}, "[22]": {"tested_on": "BT-474", "assay": "Anticlonogenic activity in Her2-overexpressing human BT474 cells assessed as inhibition of colony formation after 6 hrs followed by washout measured after 16 days by crystal violet staining", "type": "functional, cell-based"}, "[23]": {"tested_on": "SK-BR-3", "assay": "Cytotoxicity against Her2-overexpressing human SKBR3 cells after 24 to 72 hrs by MTT assay", "type": "functional, cell-based"}, "[24]": {"tested_on": "BT-474", "assay": "Anticlonogenic activity in Her2-overexpressing human BT474 cells assessed as inhibition of colony formation at 1 uM after 6 hrs followed by washout measured after 16 days by crystal violet staining", "type": "functional"}, "[25]": {"tested_on": "SK-BR-3", "assay": "Induction of cell cycle arrest in Her2-overexpressing human SKBR3 cells assessed as increase in DNA accumulation at subG1 phase at 10 uM after 24 hrs by propidium iodide staining-based flow cytometric analysis (reference value: 11%)", "type": "functional"}, "[26]": {"tested_on": "BT-474", "assay": "Induction of apoptosis in Her2-overexpressing human BT474 cells assessed as increase in Bax protein level after 24 hrs by Western blot analysis", "type": "functional, cell-based"}, "[27]": {"tested_on": "BT-474", "assay": "Induction of apoptosis in Her2-overexpressing human BT474 cells assessed as increase in BaK protein level after 24 hrs by Western blot analysis", "type": "functional, cell-based"}},
  "note": "Calls of active or inactive are those of the source. The calls are words filed in the database; no cut-off is given here.",
  "data": [
    {"compound": "CC1=CC(=O)c2c(O)cccc2C1=O", "note": "[PLUMBAGIN]", "values": [
      {"measurement": "Activity", "setting": "[1]", "value": "Dose-dependent effect"},
      {"measurement": "Ratio IC50", "setting": "[2]", "value": 2},
      {"measurement": "Activity", "setting": "[3]", "value": 20, "unit": "%"},
      {"measurement": "Activity", "setting": "[4]", "value": 43, "unit": "%"},
      {"measurement": "IC50", "setting": "[5]", "value": 1.8, "unit": "µM"},
      {"measurement": "IC50", "setting": "[6]", "value": 1.8, "unit": "µM"},
      {"measurement": "IC50", "setting": "[7]", "value": 3.2, "unit": "µM"},
      {"measurement": "Activity", "setting": "[8]", "value": "Dose-dependent effect"},
      {"measurement": "fold change (FC)", "setting": "[9]", "value": 4},
      {"measurement": "Activity", "setting": "[10]", "value": "Dose-dependent effect"},
      {"measurement": "Activity", "setting": "[11]", "value": "Dose-dependent effect"},
      {"measurement": "Activity", "setting": "[12]", "value": "Active"},
      {"measurement": "Activity", "setting": "[13]", "value": "Dose-dependent effect"},
      {"measurement": "Activity", "setting": "[14]", "value": "Active"},
      {"measurement": "Activity", "setting": "[15]", "value": "Dose-dependent effect"},
      {"measurement": "Activity", "setting": "[16]", "value": "inactive"},
      {"measurement": "Activity", "setting": "[17]", "value": "Dose-dependent effect"},
      {"measurement": "fold change (FC)", "setting": "[18]", "value": 5},
      {"measurement": "Activity", "setting": "[19]", "value": 70, "unit": "%"},
      {"measurement": "inhibition at 1 µM", "setting": "[20]", "value": 50, "unit": "%"},
      {"measurement": "IC50", "setting": "[21]", "value": 0.8, "unit": "µM"},
      {"measurement": "Activity", "setting": "[22]", "value": "Dose-dependent effect"},
      {"measurement": "Activity", "setting": "[23]", "value": "Dose-dependent effect"},
      {"measurement": "inhibition at 1 µM", "setting": "[24]", "value": 40, "unit": "%"},
      {"measurement": "Activity", "setting": "[25]", "value": 73, "unit": "%"},
      {"measurement": "Activity", "setting": "[26]", "value": "Dose-dependent effect"},
      {"measurement": "Activity", "setting": "[27]", "value": "Dose-dependent effect"}
    ]}
  ]
}
